Reference: patent US10689367B2, “Triazole pyridyl compounds as agonists of the APJ receptor” (AMGEN INC., priority 2016, dated 2020)
pEC50: −log10 of the molar value.

Target: human APJ receptor (Homo sapiens (Human), UniProt P35414)
Test: [35S]GTPγS binding assay on membranes from CHO cells stably expressing human APJ receptor
Format: biochemical
Conditions: membranes of CHO cells stably expressing human APJ receptor, read-out: Activity hAPJ SPA EC50 IP
Outline: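 Agonist EC50 values come from non-linear regression of mean data from several independent runs. Membranes of CHO cells stably expressing human APJ were incubated 90 min at room temperature with [35S]GTPγS in buffer with optimized GDP, MgCl2 and NaCl, then read on a microplate imager.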

human APJ receptor, sequence (P35414 whole entry): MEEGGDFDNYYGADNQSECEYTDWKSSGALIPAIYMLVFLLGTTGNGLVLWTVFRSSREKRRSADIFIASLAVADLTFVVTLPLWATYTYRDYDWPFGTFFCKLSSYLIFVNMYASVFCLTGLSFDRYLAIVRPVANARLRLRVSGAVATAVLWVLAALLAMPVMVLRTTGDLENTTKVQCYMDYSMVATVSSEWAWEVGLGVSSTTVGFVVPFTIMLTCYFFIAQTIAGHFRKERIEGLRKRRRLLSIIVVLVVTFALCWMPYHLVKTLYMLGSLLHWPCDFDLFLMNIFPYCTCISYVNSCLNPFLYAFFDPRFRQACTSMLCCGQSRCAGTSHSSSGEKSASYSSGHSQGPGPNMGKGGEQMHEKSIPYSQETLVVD

SMILES	pEC50
COc1cccc(-c2nnc(NS(=O)(=O)[C@@H](C)[C@H](OC)c3ncc(Cl)cn3)n2C2(C3CC3)CC2)n1 [Example 107.0]	9.38
COc1cccc(-c2nnc(NS(=O)(=O)[C@@H](C)[C@@H](OC(C)C)c3ncc(C)cn3)n2[C@@H](C)c2ncc(C)o2)n1 (single isomer, unassigned) [Example 241.0, (1S,2S)-N-(5-(6-methoxy-2-pyridinyl)-4-((1S)-1-(5-methyl-1,3-oxazol-2-yl)ethyl)-4H-1,2,4-triazol-3-yl)-1-(5-methyl-2-pyrimidinyl)-1-(2-propanyloxy)-2-propanesulfonamide or (1S,2S)-N-(5-(6-methoxy-2-pyridinyl)-4-((1R)-1-(5-methyl-1,3-oxazol-2-yl)ethyl)-4H-1,2,4-triazol-3-yl)-1-(5-methyl-2-pyrimidinyl)-1-(2-propanyloxy)-2-propanesulfonamide]	8.13
COc1cccc(-c2nnc(NS(=O)(=O)[C@@H](C)[C@H](OC)c3ncc(Cl)cn3)n2C[C@@H]2CCCOC2)n1 (racemic) [Example 311.0, (1R,2S)-1-(5-chloropyrimidin-2-yl)-1-methoxy-N-(5-(6-methoxypyridin-2-yl)-4-(((R)-tetrahydro-2H-pyran-3-yl)methyl)-4H-1,2,4-triazol-3-yl)propane-2-sulfonamide or (1R,2S)-1-(5-chloropyrimidin-2-yl)-1-methoxy-N-(5-(6-methoxypyridin-2-yl)-4-(((S)-tetrahydro-2H-pyran-3-yl)methyl)-4H-1,2,4-triazol-3-yl)propane-2-sulfonamide]	7.48
COCC1(n2c(NS(=O)(=O)[C@@H](C)[C@H](C)c3cnc(C)cn3)nnc2-c2cccnc2)CC1 [Example 66.0]	7.42
COc1cccc(-c2nnc(NS(=O)(=O)[C@@H](C)[C@H](OC)c3ncc(Cl)cn3)n2[C@H](C)c2cncnc2)n1 (single isomer, unassigned) [Example 337.0, (1R,2S)-1-(5-chloropyrimidin-2-yl)-1-methoxy-N-(5-(6-methoxypyridin-2-yl)-4-((R)-1-(pyrimidin-5-yl)ethyl)-4H-1,2,4-triazol-3-yl)propane-2-sulfonamide or (1R,2S)-1-(5-chloropyrimidin-2-yl)-1-methoxy-N-(5-(6-methoxypyridin-2-yl)-4-((S)-1-(pyrimidin-5-yl)ethyl)-4H-1,2,4-triazol-3-yl)propane-2-sulfonamide]	8.85
COc1cccc(-c2nnc(NS(=O)(=O)[C@@H](C)[C@H](OC)c3ncc(Cl)cn3)n2C23CC(C2)C3)n1 [Example 263.0, (1R,2S)—N-(4-(Bicyclo[1.1.1]pentan-1-yl)-5-(6-methoxypyridin-2-yl)-4H-1,2,4-triazol-3-yl)-1-(5-chloropyrimidin-2-yl)-1-methoxypropane-2-sulfonamide]	7.31
COc1cccc(-c2nnc(NS(=O)(=O)[C@@H](C)[C@H](OC)c3ncc(Cl)cn3)n2C(C)C)n1 [Example 11.0, (1R,2S)-1-(5-chloro-2-pyrimidinyl)-1-methoxy-N-(5-(6-methoxy-2-pyridinyl)-4-(2-propanyl)-4H-1,2,4-triazol-3-yl)-2-propanesulfonamide]	8.19
COc1cccc(-c2nnc(NS(=O)(=O)[C@@H](C)[C@@H](OC(C)C)c3ncc(C)cn3)n2C[C@H]2CCCCO2)n1 (single isomer, unassigned) [Example 301.0, (1S,2S)-1-isopropoxy-N-(5-(6-methoxypyridin-2-yl)-4-(((R)-tetrahydro-2H-pyran-2-yl)methyl)-4H-1,2,4-triazol-3-yl)-1-(5-methylpyrimidin-2-yl)propane-2-sulfonamide or (1S,2S)-1-isopropoxy-N-(5-(6-methoxypyridin-2-yl)-4-(((S)-tetrahydro-2H-pyran-2-yl)methyl)-4H-1,2,4-triazol-3-yl)-1-(5-methylpyrimidin-2-yl)propane-2-sulfonamide]	8.36
COc1cccc(-c2nnc(NS(=O)(=O)[C@@H](C)[C@H](OC)c3ncc(Cl)cn3)n2Cc2ccno2)n1 [Example 266.0, (1R,2S)-1-(5-chloropyrimidin-2-yl)-N-(4-(isoxazol-5-ylmethyl)-5-(6-methoxypyridin-2-yl)-4H-1,2,4-triazol-3-yl)-1-methoxypropane-2-sulfonamide]	8.02
COc1cnc([C@@H](OC)[C@H](C)S(=O)(=O)Nc2nnc(-c3cccc(OC)n3)n2[C@H]2CC23CC3)cn1 (single isomer, unassigned) [Example 160.0, (1R,2S)-1-methoxy-1-(5-methoxypyrazin-2-yl)-N-(5-(6-methoxypyridin-2-yl)-4-((S)-spiro[2.2]pentan-1-yl)-4H-1,2,4-triazol-3-yl)propane-2-sulfonamide or (1R,2S)-1-methoxy-1-(5-methoxypyrazin-2-yl)-N-(5-(6-methoxypyridin-2-yl)-4-((R)-spiro[2.2]pentan-1-yl)-4H-1,2,4-triazol-3-y)propane-2-sulfonamide]	7.05
COc1cccc(-c2nnc(NS(=O)(=O)[C@@H](C)[C@H](OC)c3ncc(Cl)cn3)n2C[C@H]2CCCO2)n1 (single isomer, unassigned) [Example 280.0, (1R,2S)-1-(5-chloropyrimidin-2-yl)-1-methoxy-N-(5-(6-methoxypyridin-2-yl)-4-(((R)-tetrahydrofuran-2-yl)methyl)-4H-1,2,4-triazol-3-yl)propane-2-sulfonamide or (1R,2S)-1-(5-chloropyrimidin-2-yl)-1-methoxy-N-(5-(6-methoxypyridin-2-yl)-4-(((S)-tetrahydrofuran-2-yl)methyl)-4H-1,2,4-triazol-3-yl)propane-2-sulfonamide]	7.68
COc1cccc(-c2nnc(NS(=O)(=O)[C@@H](C)[C@H](OC)c3cnc(C)cn3)n2C2CC2)n1 [Example 122.0]	7.25
CCn1c(NS(=O)(=O)[C@@H](C)[C@H](OC)c2ncc(Cl)cn2)nnc1-c1ccccn1 [Example 131.0]	7.60
COc1cccc(-c2nnc(NS(=O)(=O)[C@@H](C)[C@H](OC)c3ncc(Cl)cn3)n2[C@@H](C)c2ncc(C)o2)n1 (single isomer, unassigned) [Example 256.0, (1R,2S)-1-(5-chloro-2-pyrimidinyl)-1-methoxy-N-(5-(6-methoxy-2-pyridinyl)-4-((1S)-1-(5-methyl-1,3-oxazol-2-yl)ethyl)-4H-1,2,4-triazol-3-yl)-2-propanesulfonamide or (1R,2S)-1-(5-chloro-2-pyrimidinyl)-1-methoxy-N-(5-(6-methoxy-2-pyridinyl)-4-((1R)-1-(5-methyl-1,3-oxazol-2-yl)ethyl)-4H-1,2,4-triazol-3-yl)-2-propanesulfonamide]	9.32
CC[C@H](c1cc(F)cc(F)c1)n1c(NS(=O)(=O)[C@@H](C)[C@H](OC)c2ncc(Cl)cn2)nnc1-c1cccc(OC)n1 (single isomer, unassigned) [Example 343.0, (1R,2S)-1-(5-chloropyrimidin-2-yl)-N-(4-((R)-1-(3,5-difluorophenyl)propyl)-5-(6-methoxypyridin-2-yl)-4H-1,2,4-triazol-3-yl)-1-methoxypropane-2-sulfonamide or (1R,2S)-1-(5-chloropyrimidin-2-yl)-N-(4-((S)-1-(3,5-difluorophenyl)propyl)-5-(6-methoxypyridin-2-yl)-4H-1,2,4-triazol-3-yl)-1-methoxypropane-2-sulfonamide]	10.00
COc1cccc(-c2nnc(NS(=O)(=O)[C@@H](C)[C@H](C)c3ncc(Cl)cn3)n2[C@@H](C)c2ncnn2C)n1 (single isomer, unassigned) [Example 250.0]	6.43
COCC(COC)n1c(NS(=O)(=O)[C@@H](C)[C@H](C)c2ncc(OC)cn2)nnc1-c1cccc(OC)n1 [Example 99.0]	8.38
COC[C@@H](C)n1c(NS(=O)(=O)[C@@H](C)[C@H](OC)c2ncc(Cl)cn2)nnc1-c1cccc(OC)n1 [Example 49.0]	9.06
COCC(COC)n1c(NS(=O)(=O)[C@@H](C)[C@@H](OC(C)C)c2ncc(Cl)cn2)nnc1-c1cncc(C)c1 [Example 13.0, (1S,2S)-1-(5-chloro-2-pyrimidinyl)-N-(4-(1,3-dimethoxy-2-propanyl)-5-(5-methyl-3-pyridinyl)-4H-1,2,4-triazol-3-yl)-1-(2-propanyloxy)-2-propanesulfonamide]	7.10
COc1cccc(-c2nnc(NS(=O)(=O)[C@@H](C)[C@@H](OC(C)C)c3cnc(C)cn3)n2C2CC2)n1 [Example 123.0]	8.25
COc1cccc(-c2nnc(NS(=O)(=O)[C@@H](C)[C@@H](OC(C)C)c3ncc(C)cn3)n2[C@@H](C)c2ccno2)n1 (single isomer, unassigned) [Example 217.0, (1S,2S)-N-(5-(6-methoxy-2-pyridinyl)-4-((1R)-1-(1,2-oxazol-5-yl)ethyl)-4H-1,2,4-triazol-3-yl)-1-(5-methyl-2-pyrimidinyl)-1-(2-propanyloxy)-2-propanesulfonamide or (1S,2S)-N-(5-(6-methoxy-2-pyridinyl)-4-((1S)-1-(1,2-oxazol-5-yl)ethyl)-4H-1,2,4-triazol-3-yl)-1-(5-methyl-2-pyrimidinyl)-1-(2-propanyloxy)-2-propanesulfonamide]	8.28
COc1cccc(-c2nnc(NS(=O)(=O)[C@@H](C)[C@@H](OC(C)C)c3ncc(C)cn3)n2[C@H](C)[C@@H]2CCCCO2)n1 (single isomer, unassigned) [Example 321.0]	7.92
COCCOc1cccc(-c2nnc(NS(=O)(=O)[C@@H](C)[C@H](OC)c3ncc(Cl)cn3)n2C(COC)COC)n1 [Example 42.0]	7.77
COC[C@H](C)n1c(NS(=O)(=O)[C@@H](C)[C@H](C)c2ncc(Cl)cn2)nnc1-c1ccccn1 [Example 175.0, (2S,3R)-3-(5-chloro-2-pyrimidinyl)-N-(4-((2S)-1-methoxy-2-propanyl)-5-(2-pyridinyl)-4H-1,2,4-triazol-3-yl)-2-butanesulfonamide]	7.52
